Measurements published in patent publication US9607202B2, “Methods of generating trophectoderm and neurectoderm from human embryonic stem cells” (UNIVERSITY OF PITTSBURGH—OF THE COMMONWEALTH SYSTEM OF …, priority 2009, dated 2017).

Legend:
Type in all cases: cell-based, human
[1] = test system: hESC; experiment: TSA toxicity in hESC
[2] = test system: hESCs; experiment: HDAC inhibition with TSA on BMP4-induced hESC differentiation in MIM
From the text: Though not TE-selective, BMP4 supplementation to MIM was the most robust protocol for hESC differentiation to multiple lineages. To test whether or not TSA caused lineage specific inhibition, this protocol was used to assess HDAC inhibition on hESC differentiation to TE, ME or ExE. […] Thus HDAC inhibition delayed BMP4-induced hESC differentiation in the short-term, without altering lineage selection
96-well Microplates were scanned using the 5 or 10× objective on the ArrayScan V Automated image analysis was performed using the Compartmental Analysis BioApplication using Hoechst for identification of nuclei and various transcription factor antibodies (Table 2). Nuclear-specific fluorescence intensity was determined from approximately 300 single cells per well from 3-6 independent wells to produce a well-average nuclear intensity for each measurement Mean and standard deviation were calculated from multiple wells. Fold change of the mean intensities were normalized against matched unstimulated external controls, usually the pluripotent condition, to divide out differences due to efficiency of antibody-antigen binding and chromophore quantum yield. […] Select conditions are additionally compared in bar graph format to show standard deviations and T-tests.
Colony morphology was quantified by statistical multiresolution analysis of image texture (Mangoubi et al., 2007; Sammak et al., 2008). Image texture is a mathematical measure of the size and sharpness of objects in the image, which is illustrated in one dimension by an intensity line profile (FIG. 10). […] Therefore, we employ texture analysis as an integrated measure of colony morphology. Texture was measured using wavelet analysis (Do and Vetterli, 2002), a generalization of Fourier analysis, to decompose colony texture in phase contrast images (4× objective, Nikon TMS microscope), producing a joint probability density function for the wavelet coefficients from various scales. Different culture conditions can be distinguished as belonging to distinct classes. Each class is thus represented by a probability density function, and quantitative comparative features for classifying and statistically distinguishing colony textures are extracted from the density functions. One such feature is the Kullback-Leibler (KL) distance (Do and Vetterli, 2002). […] Specifically the KL distance between a pair of colonies from the same class is shorter than a pair from different classes.

[3] = test system: hESCs; experiment: TSA-mediated inhibition of noggin induction of neurectoderm differentiation
Protocol: The hESCs were grown and passaged via standard collagenase methods and passaged into two ibidi plastic 8-well slides. All hESCs were plated onto feederless plates with Stempro Media for 24 hours. hESCs were 50% confluent at time of passage and split 1:5.
All plates were fed with Neural Differentiation Media (1:1 mix of D-MEM/F12 supplemented with 1×N2 and Neurobasal medium supplemented with B27 (all from Gibco/Invitrogen); supplemented with 100 ng/ml mouse recombinant noggin (R & D systems), 50 U/ml penicillin/50 μg/ml streptomycin (Invitrogen) and 2 mML-glutamine (Invitrogen)) starting at day 0 (100 ng/mL noggin in N2B/27 with media changed daily). Six wells in each of two plates was treated with TSA (0-25 nM daily beginning 24 hours s/p plating hESC
Colonies were stained with HDACI and Nestin. These proteins co-stained in a peri-nuclear filamentous pattern consistent with previous Nestin distribution. Pax6 expression was negative.

[4] = test system: pluripotent hESC, line H7; experiment: TSA or HDAC siRNA on pluripotent hESC in mTeSR: developmental and epigenetic markers (Arrayscan); conditions: TSA 0.5, 1.0 and 2.0 nM for 2 days
Protocol: In all panels of FIG. 11, pluripotent hESC, line H7, were cultured in mTeSR media were plated in 96 well plates, fixed and immunostained for developmental and epigenetic markers, and the intensity was measured using the Thermo Fisher Arrayscan. 300 cells per well, 3 wells per condition were measured and standard deviations (error bars) and T Tests were evaluated. […] Anti-HDAC3 antibodies confirms that siRNA directed against HDAC3, but not HDAC1, HDAC2, or control knocked down the concentration of HDAC3 (P<0.05, data not background subtracted). […] This protein changes colony texture by producing smooth, homogeneous colonies. […] This marker is selective for high cells with high levels of pluripotency.

[5] = 2 nM TSA in MIM plus BMP4, 48 hours, relative to BMP4 alone

SMILES: CC(/C=C/C(=O)NO)=C\[C@@H](C)C(=O)c1ccc(N(C)C)cc1 [TSA, trichostatin A]
- highest concentration without toxic effects [1]: 1 nM
- CDX2 expression [2, 5]: decrease
- GATA6 expression [2, 5]: decrease
- OCT4 level [2, 5]: significant OCT4 level increase
- brachyury expression [2, 5]: decrease
- expression of HDAC3 ([2]; TSA added to MIM with BMP4): significantly reduced
- methylation of histone H3K9 ([2]; TSA added to MIM with BMP4): significantly reduced
- BMP4-induced epithelial transformation (colony morphology by texture analysis) ([2]; TSA in MIM plus BMP4, 48 hours): significantly delayed
- molar sensitivity in hESC [3]: 1 nM
- HDAC (HDAC1 expression) ([3]; 1.0 nM TSA): reduces
- expression of nestin ([3]; 1.0 nM TSA): reduces
- methylation of histone H3 on lysine 9 ([3]; 1.0 nM TSA): reduces
- effect on cell-cell adhesion and cell motility ([3]; 5 nM TSA, noggin differentiation media, 48 hrs): reduced cell-cell adhesion and increased cell motility
- longer-term formation of neurectoderm ([3]; TSA treatment for 4 or more days): did not inhibit longer-term formation of neurectoderm
- neurectoderm formation ([3]; TSA treatment for 2 days at the initiation of differentiation): inhibited neurectoderm formation
- DNA methylation on 5'cytosine [4]: decreased
- GTCM2 [4]: increased
- H3K9me3 [4]: decreased
- H3K27me3 [4]: decreased
- HDAC3 [4]: significantly reduced
- Nanog [4]: increased
- histone acetylation on H3K9 [4]: decreased acetylation
- increase of colony size [4]: 2 fold
- peripheral F-actin [4]: increased
- Oct4 ([4]; dose dependent): increased
